Results on seven molecules are retold here after US7553816B2, “p-amidobenzylethers in drug delivery agents” (priority 2001, dated 2009).

Where “and” joins values, the source holds several entries; their conditions need not be identical. Equal values may be shown once. Read-outs that look alike come from different tables or passages of the source.

Data set [1] addresses T1, Bovine spleen cathepsin B (Bos taurus, UniProt P07688).
T1 construct: Bovine spleen cathepsin B (Sigma-Aldrich); purchased Sigma-Aldrich; host or cells: bovine spleen (tissue-derived)
It counts as biochemical. The following applies: for Products released upon treatment with cathepsin B: HPLC analysis. As to the method:
Bovine spleen cathepsin B (Sigma-Aldrich), dissolved in phosphate buffered saline (pH 7.2, 1 mg/mL final concentration), was activated as previously described (Bajkowski, A. S.; Frankfater, A. Specific Spectrophotometric Assays for Cathepsin B. Anal. Biochem. 1975, 68, 119-127). […] In the case of the naphthol ether 2, a 5.0 mM solution in MeOH was diluted to a final concentration of 0.22 mM. Periodically, aliquots were taken, quenched with an equal volume of MeCN, centrifuged, and 100 μL injections analyzed by HPLC (4.6 mm×15 cm C18 column) with detection between 210 and 400 nm. […] The gradient elution was 90% to 10% A over 10 min, followed by 5 min at 10% A, and the flow rate was 1.0 mL/min. The disappearance of substrate and the appearances of released alcohol and Cbz-val-cit were recorded. Cathepsin B hydrolysis rates were calculated according to the disappearance of substrate (Table 7).

Data set [2] is described as follows: Stability studies in PBS pH 7.2 or acetate buffer pH 5.1 at 37° C., HPLC. The data set is classed as physicochemical. The note with it: for Stability pH 5.1, loss of starting material: acetate buffer pH 5.1, 37° C.; for Stability pH 5.1, loss of starting material / Stability pH 7.2, loss of starting material: 7 days; for Stability at pH 5.1 (in words): pH 5.1, 37° C.; for Stability at pH 5.1 (in words) / Stability at pH 7.2 (in words): absence of added enzyme; for Stability at pH 7.2 (in words): pH 7.2, 37° C.; for Stability pH 7.2, loss of starting material: phosphate buffered saline pH 7.2, 37° C. The protocol: The other samples were injected directly into the HPLC.

Data set [3] deals with L2987 human lung adenocarcinoma cells. In words: In vitro cytotoxicity assay, [3H] thymidine incorporation. The data set is classed as cell-based. As to the method: (§1) FIG. 1 is a graph showing the cytotoxic effects on L2987 human lung adenocarcinoma (A and D), WM266/4 (B), and IGR-39 (C) human melanoma cell lines. The cells were exposed to various concentrations of the drugs for 24 h, washed, incubated for a further 48 h, and the cytotoxic activities were quantified through the incorporation of [^3H] thymidine relative to untreated control cells.
(§2) The cell lines (L2987 human lung adenocarcinoma, WM266/4 and IGR-39 human melanomas) were exposed to the agents for 24 h, washed, and viability was determined two days later by measuring the incorporation of ^3H-thymidine compared to the untreated controls.
L2987 human lung adenocarcinoma cells were obtained as previously described (Svensson, H. P.; Vrudhula, V. M.; Emsweiler, J. E.; MacMaster, J. F.; Cosand, W. L.; Senter, P. D.; Wallace, P. M. In Vitro and In Vivo Activities of a Doxorubicin Prodrug in Combination with Monoclonal Antibody β-Lactamase Conjugates. Cancer Res. 1995, 55, 2357-2365). WM266/4 and IGR-39 human melanoma cells were obtained from ATCC (Manassas, Va.) and DSMZ (Braunschweig, Germany), respectively. L2987 and WM266/4 cells were grown in Roswell Park Memorial Institute (RPMI) medium containing 10% fetal bovine serum and 10U/mL penicillin G and 10 μg/mL streptomycin sulfate. Dulbecco's modified Eagle's medium was used in place of RPMI for the IGR-39 cells. The cells (2,500 cells in 0.1 mL medium) were plated into 96-well plates, and after 24 h at 37° C., various concentrations of the drugs in medium (50 μL) were added in triplicate. Incubation was continued for an additional 24 h, the cultures were washed, and fresh medium (0.15 mL) was added. After 48 h at 37° C., [^3H] thymidine (25 μL, 0.5 μCi/well) was added, and the cultures were frozen and harvested 4 h later. Incorporation of label was measured using a β-counter.

The conditions of data set [4]: pooled human serum, 37° C.; for Stability Human serum, loss of starting material: 7 days.
Protocol: Solutions of the substrates (0.08-0.14 mM in DMSO, and 0.22 mM in MeOH for 2) were diluted 10-20-fold in PBS, acetate buffer (25 mM, pH 5.1), or pooled human serum, and incubation was carried out at 37° C. For the serum studies, equal volumes of MeCN were added and the samples were centrifuged prior to HPLC analysis. The other samples were injected directly into the HPLC.
For data set [5], the system named is IGR-39 human melanoma cells. The note with it: 24 h exposure, 48 h further, range stated for all three cell lines. The protocol: as §1, §2
(§3) L2987 human lung adenocarcinoma cells were obtained as previously described (Svensson, H. P.; Vrudhula, V. M.; Emsweiler, J. E.; MacMaster, J. F.; Cosand, W. L.; Senter, P. D.; Wallace, P. M. In Vitro and In Vivo Activities of a Doxorubicin Prodrug in Combination with Monoclonal Antibody β-Lactamase Conjugates. Cancer Res. 1995, 55, 2357-2365). WM266/4 and IGR-39 human melanoma cells were obtained from ATCC (Manassas, Va.) and DSMZ (Braunschweig, Germany), respectively. L2987 and WM266/4 cells were grown in Roswell Park Memorial Institute (RPMI) medium containing 10% fetal bovine serum and 10U/mL penicillin G and 10 μg/mL streptomycin sulfate. […] Incorporation of label was measured using a β-counter.

Data set [6] concerns WM266/4 human melanoma cells. The following applies: 24 h exposure, 48 h further, range stated for all three cell lines. The protocol:
as §1, §2, §3

For a further data set, the system named is cathepsin B. The following applies: cited from earlier work.
Where [7] appears, read: loss of starting material at 37° C. in pH 5.1 acetate buffer.

As to `COc1ccc(/C=C\c2cc(OC)c(OC)c(OC)c2)cc1OCc1ccc(NC(=O)[C@H](CCCNC(N)=O)NC(=O)[C@@H](NC(=O)OCc2ccccc2)C(C)C)cc1` [Compound 7, CBZ-VAL-CIT-PAB-3′-O-COMBRETASTATIN A-4], the “Products released upon treatment with cathepsin B” value (from here on “Products released upon treatment”) in data set [1] is on record as “combretastatin A-4 (VIIIb)”. Further, the “Specific activity of cathepsin B” value in data set [1] (setting [7]) amounted to 61 nmol/ nmol/min/mg. Also, in data set [2], the “Stability pH 5.1, loss of starting material” value (“Stability pH 5.1, loss” for short) is given as 0% loss, 7 days; the “Stability at pH 5.1 (in words)” value was “stable”; the “Stability at pH 7.2 (in words)” value is on record as “stable”; the “Stability pH 7.2, loss of starting material” value (shortened to “Stability pH 7.2, loss”) is 0% loss, 7 days. Besides, the “Factor less potent than combretastatin A-4 (VIIIb)” value in data set [3] (L2987 human lung adenocarcinoma cells (FIG. 1D)) stood at 13. Besides, in data set [4], the “Stability in human serum (in words)” value is on record as “stable” and the “Stability Human serum, loss of starting material” value is listed as 0% loss, 7 days.

Turning to `CC(C)[C@H](NC(=O)OCc1ccccc1)C(=O)N[C@@H](CCCNC(N)=O)C(=O)Nc1ccc(COc2cccc3ccccc23)cc1` [Compound 2, CBZ-VAL-CIT-PAB-1-O-NAPHTHOL], in data set [1], the “Products released upon treatment” value is “the products formed were naphthol and Cbz-val-cit-COOH”. In addition, the “Specific activity of cathepsin B” value in data set [1] (pH 5.1) is 350 nmol/min/mg and 350 nmol/ nmol/min/mg. In data set [2], the “Stability pH 5.1, loss” value is listed as 0% loss, 7 days; the “Stability at pH 5.1 (in words)” value is given as “no breakdown”; the “Stability at pH 7.2 (in words)” value was “no breakdown”; the “Stability pH 7.2, loss” value is recorded as 0% loss, 7 days. In data set [4], the “Stability in human serum (in words)” value was “no breakdown” and the “Stability Human serum, loss of starting material” value is 0% loss, 7 days.

Consider `COc1ccc(/C=C\c2cc(OC)c(OC)c(OC)c2)cc1OC(=O)OCc1ccc(NC(=O)[C@H](CCCNC(N)=O)NC(=O)[C@@H](NC(=O)OCc2ccccc2)C(C)C)cc1` [Compound 11, CBZ-VAL-CIT-PAB-OCO-COMBRETASTATIN A-4], for which the “Products released upon treatment” value in data set [1] is given as “VIIIb”. Also, the “Specific activity of cathepsin B” value in data set [1] (setting [7]) is on record as 32 nmol/ nmol/min/mg. Moreover, the “Stability in aqueous environments (in words)” value in data set [2] (aqueous environments) is given as “unstable”. Moreover, in data set [3] (FIG. 1D), the “Cytotoxicity compared with combretastatin A-4 (VIIIb), in words” value is reported as “as cytotoxic as combretastatin A-4 (VIIIb)”.

As for “CBZ-VAL-CIT-PAB-OCO-(1S, 2R)-(N-ACETYL)NOREPHEDRINE [Compound 10]”, the “Products released upon treatment” value in data set [1] is “formation of 4”. Further, in data set [1] (setting [7]), the “Specific activity of cathepsin B” value was found to be 150 nmol/ nmol/min/mg.

Regarding `COc1cc([C@@H]2c3cc4c(cc3[C@@H](O[C@@H]3O[C@@H]5CO[C@@H](C)O[C@H]5[C@H](O)[C@H]3O)[C@H]3COC(=O)[C@H]23)OCO4)cc(OC)c1OCc1ccc(NC(=O)[C@H](CCCNC(N)=O)NC(=O)[C@@H](NC(=O)OCc2ccccc2)C(C)C)cc1` [Compound 6, CBZ-VAL-CIT-PAB-O-ETOPOSIDE], in data set [1], the “Products released upon treatment” value is “release of etoposide (VIIIa)”. For the same molecule, the “Specific activity of cathepsin B” value in data set [1] (setting [7]) is reported as 160 nmol/ nmol/min/mg. Moreover, in data set [2], the “Stability pH 5.1, loss” value is given as 0% loss, 7 days; the “Stability at pH 5.1 (in words)” value is “stable”; the “Stability at pH 7.2 (in words)” value is “stable”; the “Stability pH 7.2, loss” value is listed as 0% loss, 7 days. In addition, in data set [3] (L2987, 24 h exposure, 48 h further, range stated for all three cell lines), the “Cytotoxic activity, times etoposide (VIIIa) more active than 6” value (“Cytotoxic activity, times etoposide” below) is given as 15-22 times. In data set [5], the “Cytotoxic activity, times etoposide” value is listed as 15-22 times. The “Cytotoxic activity, times etoposide” value in data set [6] was 15-22 times.

As for `COc1cccc2c1C(=O)c1c(O)c3c(c(O)c1C2=O)CC(O)(C(=O)CO)CC3OC1CC(NC(=O)OCc2ccc(NC(=O)C(CCCNC(N)=O)NC(=O)C(NC(=O)OCc3ccccc3)C(C)C)cc2)C(O)C(C)O1` (stereo not shown) [Cbz-val-cit-PAB-doxorubicin carbamate], in the data set on cathepsin B, the “Release of drug upon treatment with cathepsin B” value was “released active doxorubicin”.

Consider “CBZ-VAL-CIT-PAB-O-(N-AC)-NOR [Compound 5]”, for which the “Products released upon treatment” value in data set [1] is on record as “no N-acetylnorephedrine was detected”. For the same molecule, the “Specific activity of cathepsin B” value in data set [1] (setting [7]) was determined as 145 nmol/ nmol/min/mg. In addition, in data set [2], the “Stability pH 5.1, loss” value is reported as 0% loss 7 d and the “Stability pH 7.2, loss” value turned out to be 0% loss 7 d.
